Like-named read-outs stand apart in the source and are kept apart here.

The experiment addresses T1, CFTR (F508del/MF-HBE cells) (Homo sapiens, UniProt P13569, DEL508-508).
T1 construct: human bronchial epithelial (HBE) cells derived from CF subjects heterozygous for F508del and a minimal function CFTR mutation (F508del/MF-HBE); endogenous in cells; host or cells: Primary human bronchial epithelial cells from CF subjects (F508del/MF genotype), differentiated at an air-liquid interface
In words: Ussing chamber assay of CFTR-mediated short-circuit currents, Assay C (0.026 μM to 25 μM, 6 concentrations). The note with it: with 33 nM potentiator and 18 μM Tezacaftor, 20% human serum; for Emax: read-out: C Max activity (%). It counts as cell-based. On the procedure:
Ussing chamber experiments were performed using human bronchial epithelial (HBE) cells derived from CF subjects heterozygous for F508del and a minimal function CFTR mutation (F508del/MF-HBE) and cultured as previously described (Neuberger T, Burton B, Clark H, Van Goor F Methods Mol Biol 2011:741:39-54). After four days the apical media was removed, and the cells were grown at an air liquid interface for >14 days prior to use.
To isolate the CFTR-mediated short-circuit (ISC) current, F508del/MF-HBE grown on Costar® Snapwell™ cell culture inserts were mounted in an Ussing chamber and the transepithelial ISC was measured under voltage-clamp recording conditions (Vhold=0 mV) at 37° C. The basolateral solution contained (in mM) 145 NaCl, 0.83 K2HPO4, 3.3 KH2PO4, 1.2 MgCl2, 1.2 CaCl2, 10 Glucose, 10 HEPES (pH adjusted to 7.4 with NaOH) and the apical solution contained (in mM) 145 NaGluconate, 1.2 MgCl2, 1.2 CaCl2, 10 glucose, 10 HEPES (pH adjusted to 7.4 with NaOH) and 30 μM amiloride to block the epithelial sodium channel. Forskolin (20 μM) was added to the apical surface to activate CFTR, followed by apical addition of a CFTR inhibitor cocktail consisting of BPO, GlyH-101, and CFTR inhibitor 172 (each at 20 μM final assay concentration) to specifically isolate CFTR currents. The CFTR-mediated ISC (μA/cm^2) for each condition was determined from the peak forskolin response to the steady-state current following inhibition.
The activity of the CFTR corrector compounds on the CFTR-mediated ISC was determined in Ussing chamber studies as described above. The F508del/MF-HBE cell cultures were either incubated with the corrector compounds at a range of concentrations in combination with 33 nM (6R,12R)-17-amino-12-methyl-6,15-bis(trifluoromethyl)-13,19-dioxa-3,4,18-triazatricyclo[12.3.1.12,5]nonadeca-1(18),2,4,14,16-pentaen-6-ol and 18 μM Tezacaftor or were incubated with the corrector compounds at a single fixed concentration of 1 μM in combination with 44 nM (6R,12R)-17-amino-12-methyl-6,15-bis(trifluoromethyl)-13,19-dioxa-3,4,18-triazatricyclo[12.3.1.12,5]nonadeca-1(18),2,4,14,16-pentaen-6-ol and 18 μM Tezacaftor for 18-24 hours at 37° C. and in the presence of 20% human serum. The concentration of corrector compounds with 44 nM or 33 nM (6R,12R)-17-amino-12-methyl-6,15-bis(trifluoromethyl)-13,19-dioxa-3,4,18-triazatricyclo[12.3.1.12,5]nonadeca-1(18),2,4,14,16-pentaen-6-ol and 18 μM Tezacaftor during the 18-24 hours incubations was kept constant throughout the Ussing chamber measurement of the CFTR-mediated ISC to ensure compounds were present throughout the entire experiment. The efficacy and potency of the putative F508del correctors was compared to that of the known Vertex corrector, (14S)-8-[3-(2-{Dispiro[2.0.2.1]heptan-7-yl}ethoxy)-1H-pyrazol-1-yl]-12,12-dimethyl-2λ^6-thia-3,9,11,18,23-pentaazatetracyclo[17.3.1.111,14.05,10]tetracosa-1(22),5,7,9,19(23),20-hexaene-2,2,4-trione, in combination with 18 μM Tezacaftor and 1 μM Ivacaftor.
• Assay A: 0.1 μM to 25 μM, 6 concentrations • Assay B: 0.00001 μM to 25 μM, 12 concentrations • Assay C: 0.026 μM to 25 μM, 6 concentrations • Assay D: Activity at single concentration of 1 μM

T1 sequence (P13569 with tags, fused parts or gaps DEL508-508): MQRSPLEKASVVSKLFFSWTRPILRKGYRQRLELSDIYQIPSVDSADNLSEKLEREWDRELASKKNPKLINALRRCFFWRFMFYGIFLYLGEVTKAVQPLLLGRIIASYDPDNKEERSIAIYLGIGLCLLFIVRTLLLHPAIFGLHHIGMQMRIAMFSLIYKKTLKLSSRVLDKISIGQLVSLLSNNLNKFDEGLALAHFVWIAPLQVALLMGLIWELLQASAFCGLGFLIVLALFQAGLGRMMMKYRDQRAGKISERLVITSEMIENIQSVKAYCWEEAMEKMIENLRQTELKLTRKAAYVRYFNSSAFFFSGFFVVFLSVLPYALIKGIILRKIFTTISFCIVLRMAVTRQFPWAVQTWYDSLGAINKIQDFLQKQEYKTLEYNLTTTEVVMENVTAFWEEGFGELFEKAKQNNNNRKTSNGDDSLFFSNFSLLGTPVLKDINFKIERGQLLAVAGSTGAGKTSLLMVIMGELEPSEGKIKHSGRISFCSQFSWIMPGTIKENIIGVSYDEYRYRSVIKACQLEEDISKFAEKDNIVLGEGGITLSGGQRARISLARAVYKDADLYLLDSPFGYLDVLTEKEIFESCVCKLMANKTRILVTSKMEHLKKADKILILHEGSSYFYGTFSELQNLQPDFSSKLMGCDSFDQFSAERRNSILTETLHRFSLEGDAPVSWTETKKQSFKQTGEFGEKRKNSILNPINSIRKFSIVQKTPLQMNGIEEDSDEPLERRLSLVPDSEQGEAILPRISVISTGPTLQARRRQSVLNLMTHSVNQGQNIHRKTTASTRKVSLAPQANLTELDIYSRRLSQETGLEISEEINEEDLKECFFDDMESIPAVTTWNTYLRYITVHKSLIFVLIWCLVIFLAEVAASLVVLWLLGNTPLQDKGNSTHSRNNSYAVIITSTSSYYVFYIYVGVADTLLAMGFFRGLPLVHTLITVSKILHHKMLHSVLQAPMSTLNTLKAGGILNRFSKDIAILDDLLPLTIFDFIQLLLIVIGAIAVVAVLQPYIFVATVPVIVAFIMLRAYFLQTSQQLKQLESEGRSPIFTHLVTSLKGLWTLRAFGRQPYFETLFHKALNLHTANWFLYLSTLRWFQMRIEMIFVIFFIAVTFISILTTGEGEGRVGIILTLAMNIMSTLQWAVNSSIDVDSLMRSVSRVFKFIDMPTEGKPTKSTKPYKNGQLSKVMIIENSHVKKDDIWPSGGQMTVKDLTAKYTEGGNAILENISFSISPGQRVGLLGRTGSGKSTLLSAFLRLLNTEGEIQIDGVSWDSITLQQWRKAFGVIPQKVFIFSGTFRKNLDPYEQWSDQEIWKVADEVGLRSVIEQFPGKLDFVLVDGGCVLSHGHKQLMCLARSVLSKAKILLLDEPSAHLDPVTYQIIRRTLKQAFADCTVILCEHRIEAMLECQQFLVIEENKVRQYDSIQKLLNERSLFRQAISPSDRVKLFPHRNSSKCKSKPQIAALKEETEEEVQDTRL

Take `Cc1cccc(CCC(C)C)c1-c1nc2nc(c1C)OC[C@@H](CC(C)(C)C)N(Cc1cnc3cc(C(C)C)n(C)c3n1)C(=O)c1cccc(c1)S(=O)(=O)N2` (single isomer, unassigned) [Compound I-202]: the EC50 is less than 1 µM. Moreover, the Emax (18-24 hours) was greater than 60%.

Regarding `Cc1cccc(C)c1-c1nc2nc(c1C)OC[C@@H](CC(C)(C)C)N(Cc1ncc3oc(C(C)(C)C)cc3n1)C(=O)c1cccc(c1)S(=O)(=O)N2` [Compound I-259], the EC50 is less than 1 µM. For the same compound, under “18-24 hours”, the Emax is greater than 60%.

`Cc1cccc(CC(C)C)c1-c1nc2nc(c1C)OC[C@@H](COC(F)(F)F)N(Cc1cnc3cc(C(C)(C)C)n(C)c3n1)C(=O)c1cccc(c1)S(=O)(=O)N2` (atropisomer, axis not shown; (P)) [IV-70, (6P,11S)-12-({6-tert-butyl-5-methyl-5H-pyrrolo[2,3-b]pyrazin-3-yl}methyl)-7-methyl-6-[2-methyl-6-(2-methylpropyl)phenyl]-11-[(trifluoromethoxy)methyl]-9-oxa-2λ^6-thia-3,5,12,19-tetraazatricyclo[12.3.1.1∧{4,8}]nonadeca-1(17),4,6,8(19),14(18),15-hexaene-2,2,13-trione]: the concentration giving a half-maximal response (EC50) is 1 to 3 µM and the Emax is greater than 60%.

As to `Cc1cccc(C)c1-c1cc2nc(n1)NS(=O)(=O)c1cccc(c1)C(=O)N(Cc1ccn3cc(C(C)C)nc3n1)[C@H](CC13CC(C1)C3)CO2` [IV-63, (11R)-11-(1-Bicyclo[1.1.1]pentanylmethyl)-6-(2,6-dimethylphenyl)-12-[(2-isopropyl-imidazo[1,2-a]pyrimidin-7-yl)methyl]-2,2-dioxo-9-oxa-2λ^6-thia-3,5,12,19-tetrazatricyclo[12.3.1.14,8]nonadeca-1(18),4(19),5,7,14,16-hexaen-13-one], the EC50 was less than 1 µM and the Emax was greater than 60%.

`Cc1cccc(C)c1-c1cc2nc(n1)NS(=O)(=O)c1cccc(c1)C(=O)N(Cc1cnc3oc(C4CCC4)cc3n1)[C@H](CC1(C)CC1)CO2` [Compound I-133]: the EC50 lay in the range of 3 to 30 µM. Moreover, the Emax (18-24 hours) is greater than 60%.

As for `Cc1cccc(C)c1-c1cc2nc(n1)NS(=O)(=O)c1cccc(c1)C(=O)N(Cc1cnc3oc(C(C)(C)C)cc3n1)[C@H](COC(C)C)CO2` [Compound I-174], the EC50 fell in the range of 3 to 30 µM. For the same compound, where the note is “18-24 hours”, the Emax was greater than 60%.

Consider `Cc1cccc(C)c1-c1cc2nc(n1)NS(=O)(=O)c1cccc(c1)C(=O)N(Cc1cnc3oc(C4CC4)cc3n1)[C@H](C[C@@H]1CCCCO1)CO2` [IV-86], for which the 50% effective concentration (EC50) was 3 to 30 µM and the Emax was greater than 60%.

Take `Cc1cccc(CC(C)C)c1-c1nc2nc(c1C)OC[C@@H](CC13CC(C1)C3)N(Cc1cnc3oc(C(C)(C)C)cc3n1)C(=O)c1cccc(c1)S(=O)(=O)N2` [Compound I-247]: the half-maximal effective concentration (EC50) is less than 1 µM. The Emax (18-24 hours) was greater than 60%.

In the case of `Cc1cccc(CC(C)C)c1-c1nc2nc(c1C)OC[C@@H](COC(F)(F)F)N(Cc1cnc3cc(C4CC4)n(C)c3n1)C(=O)c1cccc(c1)S(=O)(=O)N2` [IV-69], the concentration giving a half-maximal response (EC50) was 1 to 3 µM and the Emax was greater than 60%.

As to `Cc1cccc(C)c1-c1cc2nc(n1)NS(=O)(=O)c1cccc(c1)C(=O)N(Cc1cnc3cc(C(C)(C)C)n(C)c3n1)[C@@H](CC1CC(F)(F)C1)CO2` (single isomer, unassigned) [IV-55, 12-[(6-tert-Butyl-5-methyl-pyrrolo[2,3-b]pyrazin-3-yl)methyl]-11-[(3,3-difluorocyclobutyl)methyl]-6-(2,6-dimethylphenyl)-2,2-dioxo-9-oxa-2λ^6-thia-3,5,12,19-tetrazatricyclo[12.3.1.14,8]nonadeca-1(18),4(19),5,7,14,16-hexaen-13-one], the concentration for a half-maximal effect (EC50) is less than 1 µM and the Emax was greater than 60%.

For `Cc1cccc(CC(C)C)c1-c1nc2nc(c1C)OC[C@@H](CC1(C)CC1)N(Cc1cnc3cc(C(C)(C)C)n(C)c3n1)C(=O)c1cccc(n1)S(=O)(=O)N2` [IV-72], the EC50 is 1 to 3 µM and the Emax was greater than 60%.

For the compound `Cc1cccc(C)c1-c1cc2nc(n1)NS(=O)(=O)c1cccc(c1)C(=O)N(Cc1cnc3oc(C(C)(C)CO)cc3n1)[C@H](CC1(C)CC1)CO2` [Compound I-112], the EC50 lay in the range of 3 to 30 µM. Further, the Emax (18-24 hours) was greater than 60%.

Consider `Cc1cccc(C)c1-c1cc2nc(n1)NS(=O)(=O)c1cccc(c1)C(=O)N(Cc1cnc3oc([C@H](C)CO)cc3n1)[C@H](CC1(C)CC1)CO2` [IV-52, (11R)-6-(2,6-Dimethylphenyl)-12-[[6-[(1R)-2-hydroxy-1-methyl-ethyl]furo[2,3-b]pyrazin-2-yl]methyl]-11-[(1-methylcyclopropyl)methyl]-2,2-dioxo-9-oxa-2λ^6-thia-3,5,12,19-tetrazatricyclo[12.3.1.14,8]nonadeca-1(18),4(19),5,7,14,16-hexaen-13-one], for which the concentration giving a half-maximal response (EC50) is 3 to 30 µM and the Emax is greater than 60%.

Take `COc1c2nc(nc1-c1c(C)cccc1C)NS(=O)(=O)c1cccc(c1)C(=O)N(Cc1cnc3cc(C4(C(F)(F)F)CC4)n(C)c3n1)[C@H](COC(C)C)CO2` [IV-104]: the EC50 was 1 to 3 µM and the Emax was greater than 60%.

Regarding `Cc1cccc(C)c1-c1cc2nc(n1)NS(=O)(=O)c1cccc(c1)C(=O)N(Cc1cnc3oc(C(C)(C)C)cc3n1)[C@H](C[C@@H]1CCCO1)CO2` [IV-83], the EC50 was in the range of 1 to 3 µM and the Emax is greater than 60%.

As for `Cc1cccc(C)c1-c1cc2nc(n1)NS(=O)(=O)c1cccc(c1)C(=O)N(Cc1cnc3oc(C4CC4)cc3n1)[C@H]([C@H](C)OCc1ccccc1)CO2` [IV-62], the 50% effective concentration (EC50) was in the range of 3 to 30 µM and the Emax was greater than 60%.

For `Cc1cccc(CC(C)C)c1-c1nc2nc(c1C)OC[C@@H](C(C)C)N(Cc1cnc3cc(C(C)(C)C)n(C)c3n1)C(=O)c1cccc(c1)S(=O)(=O)N2` (atropisomer, axis not shown) [IV-79], the EC50 is less than 1 µM and the Emax is greater than 60%.

In the case of `Cc1cccc(C)c1-c1cc2nc(n1)NS(=O)(=O)c1cccc(c1)C(=O)N(Cc1cnc3oc(C(C)(C)C)cc3n1)[C@H](CC13CC(C)(C1)C3)CO2` [IV-53, (11R)-12-[(6-tert-butylfuro[2,3-b]pyrazin-2-yl)methyl]-6-(2,6-dimethylphenyl)-11-[(3-methyl-1-bicyclo[1.1.1]pentanyl)methyl]-2,2-dioxo-9-oxa-2λ^6-thia-3,5,12,19-tetrazatricyclo[12.3.1.14,8]nonadeca-1(18),4(19),5,7,14,16-hexaen-13-one], the EC50 is 1 to 3 µM and the Emax was greater than 60%.

Turning to `CCc1cccc(CC)c1-c1cc2nc(n1)NS(=O)(=O)c1cccc(c1)C(=O)N(Cc1cnc3oc(C4CC4)cc3n1)[C@H](CC(C)(C)C)CO2` [IV-68], the EC50 lay within 1 to 3 µM and the Emax was greater than 60%.

For the compound `CCc1cccc(CC)c1-c1nc2nc(c1C)OC[C@@H](CC(C)(C)C)N(Cc1cnc3cc(C(C)(C)C)n(C)c3n1)C(=O)c1cccc(c1)S(=O)(=O)N2` [IV-91], the concentration giving a half-maximal response (EC50) was less than 1 µM and the Emax was greater than 60%.

For `Cc1cccc(C)c1-c1cc2nc(n1)NS(=O)(=O)c1cccc(c1)C(=O)N(Cc1cnc3cc(C4(C(F)(F)F)CC4)n(C)c3n1)[C@H](CC13CC(C1)C3)CO2` [IV-73], the EC50 is less than 1 µM and the Emax is greater than 60%.

For `Cc1cccc(C)c1-c1cc2nc(n1)NS(=O)(=O)c1cccc(c1)C(=O)N(Cc1cnc3oc(C(C)(C)C)cc3n1)[C@@H](CC1CC(F)(F)C1)CO2` [IV-57], the EC50 lay in the range of 3 to 30 µM and the Emax is greater than 60%.

The record behind these values is patent US20250340574A1, “MODULATORS OF CYSTIC FIBROSIS TRANSMEMBRANE CONDUCTANCE REGULATOR” (Vertex Pharmaceuticals Incorporated, priority 2022, published 2025).
